This test is described as follows: Inhibition of HIV1 3B reverse transcriptase activity infected in human H9 cells assessed as level of p24 antigen.

In general, IC50 refers to the concentration that gives 50% inhibition.

As for `CC1(C)O[C@H]2CC(=O)OC[C@]23[C@H]2CC[C@@]4(C)[C@H](c5ccoc5)OC(=O)[C@H]5O[C@]54[C@]2(C)C(=O)C[C@@H]13` [Limonin], the IC50 came to 4.48 nM.

For the origin of these results see BindingDB's records for doi:10.1016/j.bmc.2011.01.024 (University of Rome Tor Vergata, 2011).
